In US20160122340A1, “HISTONE DEACETYLASE INHIBITORS BASED ON DERIVATIVES OF TRICYCLIC POLYHYDROACRIDINE AND ANALOGS POSSESSING FUSED SATURATED FIVE-AND-SEVEN-MEMBERED RINGS” (QUIMATRYX, S.L., priority 2013, published 2016):

How the values were obtained:
Format in all cases: biochemical
Human HDAC4 = target: T1, Human HDAC4 (Homo sapiens, UniProt P56524); experiment: In vitro HDAC4 inhibition, fluorogenic substrate; details: read-out: IC50 (μM) HDAC-4
T1 construct: Amino acids 627-1085 with N-terminal GST tag, MW=75.2 kDa; GST (N); purchased BioMol, Hamburg, Germany; host or cells: baculovirus expression system
Description: (§1) In Vitro Inhibitory Activity of Histone Deacetylase: Human Isoforms HDAC1, 2, 3, 4, 5, 6, 7, 8, 9, 10 and 11 and HeLa Cell Line Nuclear Extract (IC50 Data)
(§2) All HDAC assays were performed using acetylated AMC-labeled peptide substrate: • Substrate for isoforms HDAC1, 2, 3, 6, 10, 11 and HeLa nuclear extract assays: Acetylated fluorogenic peptide from p53 residues 379-382 (RHKKAc). • Substrate for isoforms HDAC 4, 5, 7, 9: Fluorogenic Boc-L-Lys(ε-trifluoroacetyl)-AMC. • Substrate for HDAC8 assays: Acetylated fluorogenic peptide from p53 residues 379-382 (RHKAcKAc).
(§3) 50 μM of substrate peptide (see ‘substrate peptides’ section above) and an optimal concentration of the corresponding enzyme (see ‘enzymes’ section above) in the assay buffer and 1% final concentration of DMSO were incubated in the presence of gradient concentrations of inhibitors (10-dose IC50 mode with 3-fold serial dilution) at 30° C. for 2 h. The reactions were carried out in a 96-well microplate for fluorometry in a 50 μl reaction volume. After the deacetylation reaction, Fluor-de-Lys-Developer (BioMol Cat. # KI-105) was added to each well to digest the deacetylated substrate, thus producing the fluorescent signal. The reaction was allowed to develop for 45 minutes at 30° C. with 5% CO2; then the fluorescent signal was measured with an excitation wavelength at 360 nm and an emission wavelength at 460 nm in a microplate-reading fluorometer (GeminiXS; Molecular Devices, Sunnyvale, Calif.). A curve of Deacetylated Standard (Biomol, Cat. # KI-142; made from 100 μM with 1:2 dilution and 10-doses, 6 μl) allowed the conversion of fluorescent signal into micromoles of deacetylated product. All experiments were performed in triplicate. IC50 was calculated by fitting the experimental data to a dose-response curve. DMSO was used as negative control; Trichostatin A (Biomol Cat. # GR-309) was used as positive control inhibitor.

Human HDAC5 = target: T2, Human HDAC5 (Homo sapiens, UniProt Q9UQL6); experiment: In vitro HDAC5 inhibition, fluorogenic substrate; details: read-out: IC50 (μM) HDAC-5
T2 construct: Full length with Nterminal GST tag, MW=150 kDa; GST (N); purchased BioMol, Hamburg, Germany; host or cells: baculovirus / Sf9 cells
Description: as §1, §2, §3

Human HDAC6 = target: T3, Human HDAC6 (Homo sapiens, UniProt Q9UBN7); experiment: In vitro HDAC6 inhibition, fluorogenic peptide substrate; details: read-out: IC50 (μM) HDAC-6
T3 construct: Full length with N-terminal GST tag, MW=159 kDa; GST (N); purchased BioMol SE-508; host or cells: baculovirus / Sf9 cells
T3 sequence (Q9UBN7 1-1215): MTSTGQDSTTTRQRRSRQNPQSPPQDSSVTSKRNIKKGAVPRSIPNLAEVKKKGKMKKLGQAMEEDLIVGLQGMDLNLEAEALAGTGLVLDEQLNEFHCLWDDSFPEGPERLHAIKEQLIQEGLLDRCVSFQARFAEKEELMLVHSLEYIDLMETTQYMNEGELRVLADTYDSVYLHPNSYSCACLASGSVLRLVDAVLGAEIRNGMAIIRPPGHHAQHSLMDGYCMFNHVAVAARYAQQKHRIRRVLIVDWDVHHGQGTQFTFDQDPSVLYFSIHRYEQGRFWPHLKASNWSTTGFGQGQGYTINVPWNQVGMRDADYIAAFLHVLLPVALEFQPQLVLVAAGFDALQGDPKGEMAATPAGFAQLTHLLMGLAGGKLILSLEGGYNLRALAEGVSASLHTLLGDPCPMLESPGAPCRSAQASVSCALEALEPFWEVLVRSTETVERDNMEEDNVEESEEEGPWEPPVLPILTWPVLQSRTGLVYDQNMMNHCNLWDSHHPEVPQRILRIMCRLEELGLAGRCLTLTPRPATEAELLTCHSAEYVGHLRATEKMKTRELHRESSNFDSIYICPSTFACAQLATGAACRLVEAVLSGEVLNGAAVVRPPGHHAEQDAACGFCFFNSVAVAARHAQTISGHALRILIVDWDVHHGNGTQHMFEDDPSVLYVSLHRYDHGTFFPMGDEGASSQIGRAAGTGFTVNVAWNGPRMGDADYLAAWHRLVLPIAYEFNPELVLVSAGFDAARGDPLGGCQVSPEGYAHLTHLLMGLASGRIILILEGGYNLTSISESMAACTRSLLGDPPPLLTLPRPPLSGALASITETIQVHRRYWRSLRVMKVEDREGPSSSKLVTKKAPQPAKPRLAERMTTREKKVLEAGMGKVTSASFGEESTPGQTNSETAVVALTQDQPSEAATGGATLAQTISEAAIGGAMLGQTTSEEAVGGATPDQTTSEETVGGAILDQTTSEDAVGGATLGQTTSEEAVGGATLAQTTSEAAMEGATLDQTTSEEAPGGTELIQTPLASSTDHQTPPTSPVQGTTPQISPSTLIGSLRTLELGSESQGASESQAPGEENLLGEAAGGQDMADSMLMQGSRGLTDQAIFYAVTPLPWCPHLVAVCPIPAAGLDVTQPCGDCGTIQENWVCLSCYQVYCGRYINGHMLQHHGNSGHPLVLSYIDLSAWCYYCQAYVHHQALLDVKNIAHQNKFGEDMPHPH
Description: as §1, §2, §3

T2 sequence (Q9UQL6 1-1123 isoform Q9UQL6-3): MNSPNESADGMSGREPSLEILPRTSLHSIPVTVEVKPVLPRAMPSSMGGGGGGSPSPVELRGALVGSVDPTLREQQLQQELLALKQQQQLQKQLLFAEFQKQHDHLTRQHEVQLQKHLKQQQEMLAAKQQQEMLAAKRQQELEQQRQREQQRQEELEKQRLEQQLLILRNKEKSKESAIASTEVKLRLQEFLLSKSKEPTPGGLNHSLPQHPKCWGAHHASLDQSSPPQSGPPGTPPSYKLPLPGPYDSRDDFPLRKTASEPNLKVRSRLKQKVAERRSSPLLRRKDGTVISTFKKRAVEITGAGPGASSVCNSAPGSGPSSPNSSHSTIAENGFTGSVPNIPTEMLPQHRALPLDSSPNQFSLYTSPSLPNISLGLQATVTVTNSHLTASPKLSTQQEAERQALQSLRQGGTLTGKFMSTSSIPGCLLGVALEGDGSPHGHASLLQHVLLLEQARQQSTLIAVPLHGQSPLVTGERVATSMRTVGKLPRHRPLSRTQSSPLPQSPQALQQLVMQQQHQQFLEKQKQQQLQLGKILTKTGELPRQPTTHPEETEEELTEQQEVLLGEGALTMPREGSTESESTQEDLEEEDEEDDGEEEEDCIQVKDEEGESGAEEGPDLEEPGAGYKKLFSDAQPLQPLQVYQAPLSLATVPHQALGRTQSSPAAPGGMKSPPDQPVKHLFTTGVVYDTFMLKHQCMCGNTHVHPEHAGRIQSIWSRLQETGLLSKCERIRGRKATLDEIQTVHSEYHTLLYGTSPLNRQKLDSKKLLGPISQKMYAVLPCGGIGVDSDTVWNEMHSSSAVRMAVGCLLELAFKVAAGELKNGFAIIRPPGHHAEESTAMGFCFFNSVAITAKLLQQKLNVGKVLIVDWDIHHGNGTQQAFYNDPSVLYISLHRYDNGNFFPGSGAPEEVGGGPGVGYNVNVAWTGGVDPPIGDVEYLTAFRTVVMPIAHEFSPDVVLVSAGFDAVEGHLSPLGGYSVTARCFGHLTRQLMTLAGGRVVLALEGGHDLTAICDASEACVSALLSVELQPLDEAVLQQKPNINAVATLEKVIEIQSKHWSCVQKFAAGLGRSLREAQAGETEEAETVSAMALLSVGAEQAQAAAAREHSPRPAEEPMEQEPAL
T1 sequence (P56524 627-1084 limits assumed): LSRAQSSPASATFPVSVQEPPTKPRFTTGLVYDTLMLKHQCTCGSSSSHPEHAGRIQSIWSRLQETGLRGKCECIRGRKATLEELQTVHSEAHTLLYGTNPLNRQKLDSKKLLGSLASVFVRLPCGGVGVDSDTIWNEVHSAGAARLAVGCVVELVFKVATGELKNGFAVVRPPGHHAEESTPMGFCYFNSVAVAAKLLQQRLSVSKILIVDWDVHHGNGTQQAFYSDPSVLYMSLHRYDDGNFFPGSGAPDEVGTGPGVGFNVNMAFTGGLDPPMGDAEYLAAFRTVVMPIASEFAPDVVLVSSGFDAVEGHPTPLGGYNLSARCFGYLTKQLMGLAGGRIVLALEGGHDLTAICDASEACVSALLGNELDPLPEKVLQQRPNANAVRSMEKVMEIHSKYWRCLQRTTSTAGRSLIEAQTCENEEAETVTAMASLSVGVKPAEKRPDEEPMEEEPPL

Row | IC50 (Human HDAC4) [µM] | IC50 (Human HDAC5) [µM] | IC50 (Human HDAC6) [µM] | Compound
1 | 6.19 | 2.14 | 0.036 | O=C(CCCCCNc1c2c(nc3ccccc13)CCCC2)NO [Example 1, N-hydroxy-6-[(1,2,3,4-tetrahydroacridin-9-yl)amino]hexanamide]
2 | > 5 | 0.44 | 0.01 | O=C(CCCCCCNc1c2c(nc3ccccc13)CCCC2)NO [Example 2, N-hydroxy-7-[(1,2,3,4-tetrahydroacridin-9-yl)amino]heptanamide]
3 | > 5 | > 5 |  | O=C(CCCCCCNc1c2c(nc3ccccc13)CCC2)NO [Example 3, 7-[(2,3-dihydro-1H-cyclopenta[b]quinolin-9-yl)amino]-N-hydroxyheptanamide]
4 | > 5 | > 5 | 0.015 | O=C(CCCCCCNc1c2c(nc3ccccc13)CCCCC2)NO [Example 4, N-hydroxy-7-[(7,8,9,10-tetrahydro-6H-cyclohepta[b]quinolin-11-yl)amino]heptanamide]
5 | > 5 | > 5 | 0.015 | COc1cccc2c(NCCCCCCC(=O)NO)c3c(nc12)CCCC3 [Example 5, N-hydroxy-7-[(5-methoxy-1,2,3,4-tetrahydroacridin-9-yl)amino]heptanamide]
6 | > 5 | > 5 | 0.038 | O=C(CCCCCCNc1c2c(nc3ncccc13)CCCC2)NO [Example 7, N-hydroxy-7-[(6,7,8,9-tetrahydrobenzo[b][1,8]naphthyridin-5-yl)amino]heptanamide]
7 | > 5 | > 5 | 0.033 | O=C(CCCCCCNc1c2c(nc3cnccc13)CCCC2)NO [Example 8, N-hydroxy-7-[(6,7,8,9-tetrahydrobenzo[b][1,7]naphthyridin-5-yl)amino]heptanamide]
8 | > 5 | > 5 | 0.33 | O=C(CCCCCNC(=O)c1c2c(nc3ccccc13)CCCC2)NO [Example 10, N-[6-(hydroxyamino)-6-oxohexyl]-1,2,3,4-tetrahydroacridine-9-carboxamide]
9 | > 5 | 4.24 | 0.19 | O=C(CCCCCCNC(=O)c1c2c(nc3ccccc13)CCCC2)NO [Example 11, N-[7-(hydroxyamino)-7-oxoheptyl]-1,2,3,4-tetrahydroacridine-9-carboxamide]
